Source: publication PMC12397098, “3-Monothiopomalidomide, a new immunomodulatory imide drug (IMiD), blunts inflammation and mitigates ischemic stroke in the rat” (GeroScience, 2025)
pIC50: −log10 of the molar value.

Tests used:
[1] = Ex vivo plasma stability, rat; assay type: in vitro ADME; conditions: 100 μg/ml, 37 °C, 180 min
Procedure: (§1) Ex vivo evaluations of drug plasma and liver microsomal time-dependent breakdown are routinely undertaken to initially characterize the metabolic stability of new pharmacological compounds and were performed by WuXi AppTec (Shanghai, China; Study No. 424847–20,211,214-MMS). Rat and human plasma and liver microsomes were purchased from Xenotech (Sprague Dawley rat, Catalog no. R1000; BioIVT, Westbury, NY) or Corning (mixed human, Catalog no. 452117; Sigma). Rat and human plasma was incubated at 37 °C on a shaker and spiked with 3-MP (100 μg/ml, n = 3). Thereafter, samples were time-dependently (0 to 180 min) removed, immediately frozen (− 80 °C), and subjected to LC–MS/MS analysis at a later time.

[2] = Ex vivo plasma stability, human; assay type: in vitro ADME; conditions: 100 μg/ml, 37 °C, 180 min
Procedure: as §1

Sigma 2 receptor = Sigma 2 receptor (Rattus norvegicus, UniProt Q5U3Y7); test: PDSP radioligand binding; conditions: read-out: 3-MP concentration required to induce 50% inhibition of PDSP radioligand binding
Procedure: (§2) To evaluate potential binding at classical neurological drug targets, 3-MP and 3,6’-DP were submitted to the National Institute on Mental Health (NIMH) Psychoactive Drug Screening Program (PDSP: Univ. N Carolina, Chapel Hill, NC, USA < https://pdspdb.unc.edu/pdspweb/ >) as powdered samples in the provided vials. The materials were then prepared at the PDSP in 10% DMSO, subjected to multiple assay screens, and processed as per the PDSP Assay Protocol Book (Version 3, March 2018). Compounds that exceeded an initial 10 uM binding threshold were then delegated for secondary dose–response analysis. This screen comprised a 45-target comprehensive panel of common brain receptor and transporter drug targets.

[3] = biological target: T1, Adrenergic Alpha2B receptor (Homo sapiens, UniProt P18089); test: PDSP radioligand binding; conditions: read-out: 3-MP concentration required to induce 50% inhibition of PDSP radioligand binding
T1 construct: NIMH Psychoactive Drug Screening Program (PDSP)
Procedure: as §2

[4] = biological target: T2, Adrenergic Alpha2A receptor (Homo sapiens, UniProt P08913); test: PDSP radioligand binding; conditions: read-out: 3-MP concentration required to induce 50% inhibition of PDSP radioligand binding
T2 construct: NIMH Psychoactive Drug Screening Program (PDSP)
Procedure: as §2

GABAA receptor = test: PDSP radioligand binding; conditions: read-out: 3-MP concentration required to induce 50% inhibition of PDSP radioligand binding
Procedure: as §2

[5] = biological target: T3, Serotonin 5-HT1E receptor (Homo sapiens, UniProt P28566); test: PDSP radioligand binding; conditions: read-out: 3-MP concentration required to induce 50% inhibition of PDSP radioligand binding
T3 construct: NIMH Psychoactive Drug Screening Program (PDSP)
Procedure: as §2

[6] = 3-MP nanosuspension time-dependent stability (LC-MS); assay type: physicochemical
Procedure: Thalidomide, pomalidomide, and most related analogues have poor aqueous solubility. As a consequence, to aid biological evaluation, a 3-MP nanosuspension was prepared in line with our prior study. Specifically, the drug was mixed in an aqueous solution (Tween 80/water) and vortexed for 10 min. The coarse drug suspension was then placed in Eppendorf microtubes containing approximately 0.4 g of 0.1–0.2 mm yttrium-stabilized zirconia-silica beads (Silibeads® Typ ZY Sigmund Lindner, Germany). These were vortexed twice, at 3000 rpm for 45 min, using a beads-milling cell disruptor (Disruptor Genie®, Scientific Industries, USA). […] To evaluate the stability of the 3-MP nanosuspension, a vial (241 μM, 4 °C) was time-dependently sampled over a 98-day period, and the drug was quantified by LC–MS (see Supplementary information). […]
Nanoformulation LC/MS Assays: A rudimentary assay was devised to assess the relative stability of nanoformulated 3-MP. In short, a sample of nanoformulated 3-MP was monitored for degradation until, roughly, 10% of the original material was lost due to hydrolysis and other such factors. […] These samples were immediately analyzed. […] The areas of the ensuing UV peaks detected at 254nm served as the basis for analysis, and the stock nanoformulation was monitored as a function of derivation from the 3-MP nanoformulation t=0 area (defined as “100% Area Percent” in the initial trace). […]

[7] = test system: MCAo-induced brain infarction; test: MCAo ischemic stroke: brain infarct volume (TTC); assay type: in vivo, rat; conditions: 3-MP 10.58 and 21.17 mg/kg I.P. (doses combined), 48 h
[8] = test system: plasma TNF-α, IL-1β, IL-6, IL-10 in MCAo-challenged rats; test: MCAo ischemic stroke: plasma cytokines at 48 h; assay type: in vivo; conditions: rat MCAo, 3-MP I.P., plasma at 48 h
in vitro = conditions: human, microsomes

Sequence of Sigma 2 receptor (Q5U3Y7 whole entry): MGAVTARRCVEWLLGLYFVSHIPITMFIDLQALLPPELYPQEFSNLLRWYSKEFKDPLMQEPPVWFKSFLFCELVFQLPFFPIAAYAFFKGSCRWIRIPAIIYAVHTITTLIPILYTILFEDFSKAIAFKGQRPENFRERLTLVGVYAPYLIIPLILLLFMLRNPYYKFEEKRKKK
T2 sequence (P08913 whole entry): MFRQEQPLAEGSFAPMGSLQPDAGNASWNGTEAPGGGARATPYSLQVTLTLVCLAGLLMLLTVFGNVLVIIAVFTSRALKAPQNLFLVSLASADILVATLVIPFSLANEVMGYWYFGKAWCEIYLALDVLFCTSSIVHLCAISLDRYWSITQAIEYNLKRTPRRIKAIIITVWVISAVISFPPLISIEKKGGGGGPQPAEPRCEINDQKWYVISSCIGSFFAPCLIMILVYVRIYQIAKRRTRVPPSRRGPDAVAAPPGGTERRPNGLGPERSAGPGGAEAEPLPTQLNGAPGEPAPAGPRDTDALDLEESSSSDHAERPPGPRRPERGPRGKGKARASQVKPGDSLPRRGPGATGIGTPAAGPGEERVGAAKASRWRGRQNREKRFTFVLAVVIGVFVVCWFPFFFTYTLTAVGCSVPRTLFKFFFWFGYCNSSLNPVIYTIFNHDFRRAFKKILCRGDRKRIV
T1 sequence (P18089 whole entry): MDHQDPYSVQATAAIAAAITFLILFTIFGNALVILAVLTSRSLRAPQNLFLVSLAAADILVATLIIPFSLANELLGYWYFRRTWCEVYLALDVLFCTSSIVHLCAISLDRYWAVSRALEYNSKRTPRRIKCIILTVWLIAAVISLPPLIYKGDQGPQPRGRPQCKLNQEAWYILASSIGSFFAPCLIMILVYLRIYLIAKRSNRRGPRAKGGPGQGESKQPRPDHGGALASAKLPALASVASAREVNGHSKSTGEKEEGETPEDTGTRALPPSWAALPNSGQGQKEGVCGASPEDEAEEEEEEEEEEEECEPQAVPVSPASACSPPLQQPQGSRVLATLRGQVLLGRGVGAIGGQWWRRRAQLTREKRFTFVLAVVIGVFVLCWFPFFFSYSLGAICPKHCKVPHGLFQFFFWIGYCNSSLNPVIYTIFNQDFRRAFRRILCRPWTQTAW
T3 sequence (P28566 whole entry): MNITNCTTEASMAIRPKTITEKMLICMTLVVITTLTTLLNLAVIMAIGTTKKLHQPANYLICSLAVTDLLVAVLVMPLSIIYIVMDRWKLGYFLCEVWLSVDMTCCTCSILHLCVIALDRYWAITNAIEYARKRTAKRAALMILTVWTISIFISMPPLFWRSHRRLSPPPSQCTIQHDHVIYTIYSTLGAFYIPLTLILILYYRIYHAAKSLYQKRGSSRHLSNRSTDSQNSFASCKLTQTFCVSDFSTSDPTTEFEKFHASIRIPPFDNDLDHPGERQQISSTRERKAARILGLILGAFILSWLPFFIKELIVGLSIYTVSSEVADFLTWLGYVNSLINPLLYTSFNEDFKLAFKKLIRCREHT

With Nc1cccc2c1C(=S)N(C1CCC(=O)NC1=O)C2=O (stereo not drawn) [3-MP, 3-Monothiopomalidomide] the “stability in rat plasma” value [1] was “relatively stable”, the “stability in human plasma” value [2] was “relatively stable” and the pIC50 (Sigma 2 receptor) was under 5.00. The pIC50 [3] was under 5.00, the pIC50 [4] was under 5.00 and the pIC50 (GABAA receptor) was under 5.00. For the same compound, the pIC50 [5] was under 5.00, the “area of the 3-MP peak, relative intensity” value ([6]; nanoformulated 3-MP stock stored in the dark at 4 °C, t=98 days, UV 254 nm, relative to t=0) was “below 90%” and the “stability of 3-MP nanosuspension” value ([6]; nanosuspension in Tween-80/water, 241 μM, 4 °C, 98-day period, LC–MS/MS) was “time-dependently stable”. The infarct volume ([7]; rat MCAo 60 min + reperfusion, TTC) was 4.32 ± 1.33%, the “reduction of infarct volume versus MCAo + vehicle” value ([7]; rat MCAo) was 56% and the “MCAo-induced elevation in plasma IL-1β” value [8] was “significantly mitigated”. The “MCAo-induced elevation in plasma IL-6” value [8] was “significantly mitigated”, the “MCAo-induced elevation in plasma TNF-α” value [8] was “significantly mitigated” and the “plasma anti-inflammatory IL-10 levels” value [8] was “rise”. The CLint scaled at 1 μM (in vitro) was under 8.6 mL/min/kg, the half-life at 1 μM (in vitro) was over 2.42 h and the microsomal CLint at 1 μM (in vitro) was under 9.6 µL/min/mg.
